Test results: BindingDB's records for doi:10.1111/cbdd.12142 (Delhi Institute of Pharmaceutical Sciences and Research, 2013)

target: Dipeptidyl peptidase 4 (Homo sapiens, UniProt P27487); experiment: In vitro DPP IV enzyme inhibition assay; conditions: 37 °C
Experimental: Following the manufacturer's guidelines, the assay was performed using 96-well flat-bottomed microtitre plate followed by addition of assay buffer, DPP IV enzyme and chromogenic substrate (HGly-Pro-pNA). Test compounds were dissolved in DMSO at different concentrations of 25, 50, 100, 200 µg/mL, and 20 µL were added to each well after further dilutions. The plate was incubated at 37°C for 10 min and read continuously at A-405 nm.

Dipeptidyl peptidase 4, sequence (P27487 whole entry): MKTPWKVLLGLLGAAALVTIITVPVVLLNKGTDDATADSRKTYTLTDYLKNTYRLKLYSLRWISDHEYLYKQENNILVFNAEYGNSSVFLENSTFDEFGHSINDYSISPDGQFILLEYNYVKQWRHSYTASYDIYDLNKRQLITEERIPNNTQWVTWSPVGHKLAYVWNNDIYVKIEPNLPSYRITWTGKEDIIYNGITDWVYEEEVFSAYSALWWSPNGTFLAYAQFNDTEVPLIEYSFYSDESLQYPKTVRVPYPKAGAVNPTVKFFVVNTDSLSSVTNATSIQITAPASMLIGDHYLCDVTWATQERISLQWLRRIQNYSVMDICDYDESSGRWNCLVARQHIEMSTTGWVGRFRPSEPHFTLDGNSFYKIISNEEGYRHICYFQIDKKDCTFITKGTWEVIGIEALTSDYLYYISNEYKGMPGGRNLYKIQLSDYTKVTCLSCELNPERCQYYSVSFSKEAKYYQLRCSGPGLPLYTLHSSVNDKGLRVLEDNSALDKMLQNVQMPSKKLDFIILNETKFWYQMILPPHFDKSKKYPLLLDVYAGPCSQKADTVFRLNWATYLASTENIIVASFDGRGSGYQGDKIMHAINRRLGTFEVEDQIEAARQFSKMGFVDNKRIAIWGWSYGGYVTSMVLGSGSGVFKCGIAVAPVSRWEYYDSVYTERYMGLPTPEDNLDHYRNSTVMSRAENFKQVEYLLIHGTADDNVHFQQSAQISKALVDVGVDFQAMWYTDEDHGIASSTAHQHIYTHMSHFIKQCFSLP

SMILES	IC50 [µM]
O=C(C1CCCN1CCN1CCCCC1)N1CCC(F)C1 (centres undefined) [1‐{2‐[2‐(3‐fluoropyrrolidine‐1‐carbonyl)pyrrolidin‐1‐ yl]ethyl}piperidine]	6.49
CCN(CC)CCN1CCCC1C(=O)N1CCC(F)C1 (centres undefined) [diethyl({2‐[2‐(3‐fluoropyrrolidine‐1‐ carbonyl)pyrrolidin‐1‐yl]ethyl})amine]	23.8
CN(C)CCN1CCCC1C(=O)N1CCC(F)C1 (centres undefined) [{2‐[2‐(3‐fluoropyrrolidine‐1‐carbonyl)pyrrolidin‐1‐ yl]ethyl}dimethylamine]	30.2
O=C(C1CCCN1)N1CCC(F)C1 (centres undefined) [3‐fluoro‐1‐(pyrrolidine‐2‐carbonyl)pyrrolidine]	4.27

Other lines, results leading:

IC50 [µM]	SMILES
0.43	O=C(CN1CCCC1C(=O)N1CCC(F)C1)N1CCN(c2ncccn2)CC1 (centres undefined) [2‐[2‐(3‐fluoropyrrolidine‐1‐carbonyl)pyrrolidin‐1‐ yl]‐1‐[4‐(pyrimidin‐2‐yl)piperazin‐1‐yl]ethan‐1‐ one]
7.88	O=C(CN1CCCC1C(=O)N1CCC(F)C1)N1CCCCC1 (centres undefined) [2‐[2‐(3‐fluoropyrrolidine‐1‐carbonyl)pyrrolidin‐1‐ yl]‐1‐(piperidin‐1‐yl)ethan‐1‐one]
0.83	O=C(CN1CCCC1C(=O)N1CCC(F)C1)N1CCN(c2ccccn2)CC1 (centres undefined) [2‐[2‐(3‐fluoropyrrolidine‐1‐carbonyl)pyrrolidin‐1‐ yl]‐1‐[4‐(pyridin‐2‐yl)piperazin‐1‐yl]ethan‐1‐one]
3.47	O=C(CN1CCCC1C(=O)N1CCC(F)C1)N1CCCCCC1 (centres undefined) [1‐(azepan‐1‐yl)‐2‐[2‐(3‐fluoropyrrolidine‐1‐ carbonyl)pyrrolidin‐1‐yl]ethan‐1‐one]
16.7	O=C(CN1CCCC1C(=O)N1CCC(F)C1)N1CCCC1 (centres undefined) [2‐[2‐(3‐fluoropyrrolidine‐1‐carbonyl)pyrrolidin‐1‐ yl]‐1‐(pyrrolidin‐1‐yl)ethan‐1‐one]
